The text below walks through data of publication PMC9819389, “Antiandrogenic and Estrogenic Activity Evaluation of Oxygenated and Nitrated Polycyclic Aromatic Hydrocarbons Using Chemically Activated Luciferase Expression Assays” (International Journal of Environmental Research and Public …, 2022).

In data set [1] the target is T1, human AR (Homo sapiens, UniProt P10275).
T1 sequence (P10275 1-920): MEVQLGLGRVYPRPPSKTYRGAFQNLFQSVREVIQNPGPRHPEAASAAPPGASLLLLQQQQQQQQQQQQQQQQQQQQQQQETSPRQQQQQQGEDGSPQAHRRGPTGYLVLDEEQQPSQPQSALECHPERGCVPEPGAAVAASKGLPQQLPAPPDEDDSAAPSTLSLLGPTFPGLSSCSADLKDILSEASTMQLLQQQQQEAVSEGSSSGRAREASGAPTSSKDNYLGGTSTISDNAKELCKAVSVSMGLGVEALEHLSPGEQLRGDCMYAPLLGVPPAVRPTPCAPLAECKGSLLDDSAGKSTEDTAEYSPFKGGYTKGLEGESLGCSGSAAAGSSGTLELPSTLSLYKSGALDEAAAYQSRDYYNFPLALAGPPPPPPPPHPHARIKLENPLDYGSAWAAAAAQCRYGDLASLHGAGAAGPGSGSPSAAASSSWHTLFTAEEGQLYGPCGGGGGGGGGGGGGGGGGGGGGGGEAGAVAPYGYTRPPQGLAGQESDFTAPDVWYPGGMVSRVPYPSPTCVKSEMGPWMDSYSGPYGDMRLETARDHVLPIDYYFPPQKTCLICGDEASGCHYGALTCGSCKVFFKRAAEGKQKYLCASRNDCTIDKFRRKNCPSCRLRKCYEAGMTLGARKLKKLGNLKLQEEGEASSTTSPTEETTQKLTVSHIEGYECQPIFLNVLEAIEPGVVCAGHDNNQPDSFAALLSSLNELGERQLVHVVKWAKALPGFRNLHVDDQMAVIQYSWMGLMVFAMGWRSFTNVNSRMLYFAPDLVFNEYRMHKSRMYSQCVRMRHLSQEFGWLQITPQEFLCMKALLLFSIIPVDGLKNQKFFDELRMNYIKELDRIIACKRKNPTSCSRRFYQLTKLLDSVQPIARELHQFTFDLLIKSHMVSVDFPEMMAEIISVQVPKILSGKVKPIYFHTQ
The arrangement: method as in Otsuki et al. [38]; key: +, positive. The settings on record: previous study; ref Otsuki et al. [38]; cited from earlier work.

Data set [2] deals with U2OS-luc cells. In words: MTT cell viability (cytotoxicity) assay. To be noted: cell viability <80% considered cytotoxic. As to the method:
(§1) All measurements were conducted in triplicate wells. They were repeated twice and trice in the AR- and ER-CALUX assays, respectively, for each concentration in dose–response curve. […] Cell viability was confirmed using 3-(4,5-dimethylthiazol-2-yl)-2,5-diphenyltetrazolium bromide (MTT) assay. If the cell viability was <80% in the positive control, the corresponding exposure dose was considered cytotoxic and excluded from the calculation.

For data set [3], the target named is T1, human AR. In words: AR-CALUX assay, antiandrogenic (AR antagonistic) activity, U2OS-luc cells. The settings on record: for inhibition of AR-mediated luciferase activity: coexposure to DHT at 10 nM (100 × EC50). It is filed as cell-based. The arrangement: host or cells: human U2OS-luc (osteoblastic osteosarcoma) cells. As to the method: The AR- and ER-CALUX assays for the polycyclic aromatic compounds were evaluated according to previously described methods, which used human U2OS-luc cells developed by BioDetection Systems b.v. (Amsterdam, The Netherlands). The cells are transfected stably with human AR and ER, respectively, and a luciferase reporter gene under their respective steroid receptor response elements. […] They were incubated at 37 °C in a humidified atmosphere containing 5% carbon dioxide. […] The medium was then removed, and the cells were lysed. A solution of luciferin was then added, and the luminescence intensity was measured with an ARVO™ X3 luminometer from PerkinElmer (Waltham, MA, USA). A sigmoid dose–response curve for a chemical was fitted to the Hill equation given by Equation (1) using SigmaPlot 11.0 from Systat Software Inc. (San Jose, CA, USA). y = min + (max − min)/(1 + (a1/x)^a^2)(1) where, y and x are the measured luciferase induction level and compound concentration, respectively. […] The REP values in mol base were obtained by dividing the ICs or ECs of the standard by the ICs or ECs of target compound, respectively.
as §1

The subject of data set [4] is thyroid receptor (TR) α. Also on record: method as in PMID 31071665. To be noted: TRα activation; cited from earlier work.

Usually IC25 stands for the point of the concentration-response curve where the effect stands at 25%. Broadly, the IC50 is the concentration that inhibits the measured activity by half. On to `O=C1c2ccccc2-c2ccc([N+](=O)[O-])c3cccc1c23` [3-NBAO, 3-nitro-7H-benz[de]anthracen-7-one], for which, in data set [1], the “antiandrogenic activity, Yeast” value is reported as “+”. In addition, the “concentration at which cytotoxicity was confirmed” value in data set [2] was determined as 1000 nM. For the same molecule, the “inhibition of AR-mediated luciferase activity” value in data set [3] (compound at 30 nM) is 29%; in data set [3] (compound at 300 nM), 60%. The “mode of AR inhibition” value in data set [3] (from coexposure to 10 nM DHT) is “noncompetitive”. This molecule also yielded an IC25 in data set [3] (present study, 24 h exposure with 100 pM DHT (EC50 level)) of 5.1 nM. In addition, the “REPmol (IC25)” value in data set [3] (present study, molar relative potency to flutamide, IC25-based) was 23. In data set [3] (read-out: IC50), the 50% inhibitory concentration (IC50) was 18 nM. Moreover, the “REP50 to triiodothyronine (T3)” value in data set [4] was 0.11.
